Columns and labels:
[1] = biological target: human full-length autophosphorylated recombinant HPK1 (Homo sapiens (Human), UniProt Q92918); assay: HPK1 biochemical enzyme assay (chelation-enhanced fluorescence, CHEF); conditions: 0.5 nM HPK1, 45 μM ATP, Morrison fit
Method in brief: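 Autophosphorylated full-length human HPK1 from Sf21 cells, His-tag removed by TEV, residual N-terminal Gly-Ser. Activity measured with a C-Sox fluorescent peptide substrate (CHEF); initial velocities followed at λex 360/λem 500 nm, 30 °C for 15 min.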

[2] = system: Phospho-SLP-76 (Ser376) in Jurkat cells; assay: Phospho-SLP-76 (Ser376) HTRF assay in anti-CD3 stimulated Jurkat cells; format: cell-based; conditions: Homo sapiens, Jurkat, 30 min pre-treatment, anti-CD3 stimulation 15 min, read-out: pSLP76 IC50
Method in brief: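 Jurkat cells pre-treated 30 min with compound (11-point 3-fold series, final 10 μM to 0.1 nM, 0.1% DMSO), then stimulated 15 min at 37° C with 200 μg/mL F(ab)2-complexed anti-CD3 (UCTH1). Lysate phospho-SLP-76 read by HTRF sandwich after overnight RT incubation; IC50 from four-parameter fit.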

Sequence of human full-length autophosphorylated recombinant HPK1 (Q92918 other isoform, or with tags, fused parts or gaps): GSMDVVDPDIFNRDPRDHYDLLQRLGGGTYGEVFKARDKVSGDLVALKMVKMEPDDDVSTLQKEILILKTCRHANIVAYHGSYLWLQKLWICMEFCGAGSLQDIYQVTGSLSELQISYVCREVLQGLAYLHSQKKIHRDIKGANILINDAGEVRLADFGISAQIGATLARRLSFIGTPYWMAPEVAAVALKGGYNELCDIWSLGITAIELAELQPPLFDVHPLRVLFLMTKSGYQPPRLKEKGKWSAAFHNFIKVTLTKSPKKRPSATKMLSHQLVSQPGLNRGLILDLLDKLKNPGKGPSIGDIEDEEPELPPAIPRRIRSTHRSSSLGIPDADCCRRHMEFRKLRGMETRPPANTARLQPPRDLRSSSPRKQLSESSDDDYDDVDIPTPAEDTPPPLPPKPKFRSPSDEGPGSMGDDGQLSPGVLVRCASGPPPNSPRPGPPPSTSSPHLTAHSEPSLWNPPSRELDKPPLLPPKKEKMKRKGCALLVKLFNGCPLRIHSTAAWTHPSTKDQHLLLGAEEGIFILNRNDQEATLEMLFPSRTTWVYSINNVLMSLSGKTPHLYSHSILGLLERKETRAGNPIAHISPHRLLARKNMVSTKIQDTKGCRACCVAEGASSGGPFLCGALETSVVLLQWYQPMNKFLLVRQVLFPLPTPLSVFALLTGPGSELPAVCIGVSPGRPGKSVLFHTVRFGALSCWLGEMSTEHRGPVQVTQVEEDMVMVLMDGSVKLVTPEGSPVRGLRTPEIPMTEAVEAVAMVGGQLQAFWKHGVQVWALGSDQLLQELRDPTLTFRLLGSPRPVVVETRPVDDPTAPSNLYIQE

Row | Compound | Ki [1] [nM] | IC50 [2] [nM]
1 | CC[C@@H](N)c1nc(N(C)C)cc2c1CN(c1cccc(-c3nnc4n3[C@@H](CF)CC4)n1)C2=O [Example 33, 4-[(1R)-1-aminopropyl]-6-(dimethyl-amino)-2-{6-[(5R)-5-(fluoromethyl)-6,7-dihydro-5H-pyrrolo [2,1-c][1,2,4]triazol-3-yl]pyridin-2-yl}-2,3-dihydro-1H-pyrrolo[3,4-c]pyridin-1-one] | 0.21 | 179
2 | CC[C@@H](N)c1nc(N(C)C(C)C)cc2c1CN(c1cccc(-c3nnc4n3[C@@H](CF)CC4)n1)C2=O [Example 34, 4-[(1R)-1-aminopropyl]-2-{6-[(5R)-5-(fluoromethyl)-6,7-dihydro-5H-pyrrolo[2,1-c][1,2,4]triazol-3-yl]pyridin-2-yl}-6-[methyl (propan-2-yl)amino]-2,3-dihydro-1H-pyrrolo[3,4-c]pyridin-1-one] | 0.15 | 26
3 | CCn1cnnc1-c1cccc(N2Cc3c(cc(C4(C)CC4)nc3[C@@H](C)NC)C2=O)n1 [Example 111, 2-[6-(4-ethyl-4H-1,2,4-triazol-3-yl)pyridin-2-yl]-4-[(1R)-1-(methylamino)ethyl]-6-(1-methylcyclo-propyl)-2,3-dihydro-1H-pyrrolo[3,4-c]pyridin-1-one] | 3.42 | 470
4 | CCn1cnnc1-c1cccc(N2Cc3c(cc(C4(C)CC4)nc3[C@H](C)NC)C2=O)n1 [Example 112, 2-[6-(4-ethyl-4H-1,2,4-triazol-3-yl)pyridin-2-yl]-4-[(1S)-1-(methylamino)ethyl]-6-(1-methylcyclo-propyl)-2,3-dihydro-1H-pyrrolo[3,4-c]pyridin-1-one] | 0.77 | 421
5 | CCCn1cnnc1-c1cccc(N2Cc3c(cc(C4(C)CC4)nc3[C@H](C)NC)C2=O)n1 [Example 113, 4-[(1S)-1-(methylamino)ethyl]-6-(1-methylcyclo-propyl)-2-[6-(4-propyl-4H-1,2,4-triazol-3-yl)pyridin-2-yl]-2,3-dihydro-1H-pyrrolo[3,4-c]pyridin-1-one] | 0.67 | 133
6 | CCn1cnnc1-c1cccc(N2Cc3c(cc(C4(C)CC4)nc3C(C)(C)N)C2=O)n1 [Example 114, 4-(2-aminopropan-2-yl)-2-[6-(4-ethyl-4H-1,2,4-triazol-3-yl)pyridin-2-yl]-6-(1-methylcyclo-propyl)-2,3-dihydro-1H-pyrrolo[3,4-c]pyridin-1-one] | 0.41 | 148

Further lines, results first:

Row | Ki [1] [nM] | IC50 [2] [nM] | Compound
7 | 0.56 | 216 | CCn1cnnc1-c1cccc(N2Cc3c(cc(C4(C)CC4)nc3[C@@H](C)N)C2=O)n1 [Example 115, 4-[(1R)-1-aminoethyl]-2-[6-(4-ethyl-4H-1,2,4-triazol-3-yl)pyridin-2-yl]-6-(1-methylcyclo-propyl)-2,3-dihydro-1H-pyrrolo[3,4-c]pyridin-1-one]
8 | 0.64 | 214 | CCn1cnnc1-c1cccc(N2Cc3c(cc(C4(C)CC4)nc3[C@H](C)N)C2=O)n1 [Example 116, 4-[(1S)-1-aminoethyl]-2-[6-(4-ethyl-4H-1,2,4-triazol-3-yl)pyridin-2-yl]-6-(1-methylcyclo-propyl)-2,3-dihydro-1H-pyrrolo[3,4-c]pyridin-1-one]
9 | 0.97 | 243 | CCN(C)c1cc2c(c(C(C)(C)N)n1)CN(c1cccc(-c3nnc(C)n3CC)n1)C2=O [Example 123, 4-(2-aminopropan-2-yl)-6-[ethyl(methyl)amino]-2-[6-(4-ethyl-5-methyl-4H-1,2,4-triazol-3-yl)pyridin-2-yl]-2,3-dihydro-1H-pyrrolo[3,4-c]pyridin-1-one]
10 | 0.37 | 98 | CCN(C)c1cc2c(c(C(C)(C)N)n1)CN(c1cccc(-c3nncn3CC)n1)C2=O [Example 124, 4-(2-aminopropan-2-yl)-6-[ethyl(methyl)amino]-2-[6-(4-ethyl-4H-1,2,4-triazol-3-yl)pyridin-2-yl]-2,3-dihydro-1H-pyrrolo[3,4-c]pyridin-1-one]

— US11684616B2, “Azalactam compounds as HPK1 inhibitors” (PFIZER INC., priority 2020, dated 2023)
